{"source": "patent US9326972B2", "about": "“Use of phenylmethimazoles, methimazole derivatives, and tautomeric cyclic thiones for the treatment of autoimmune/inflammatory diseases associated with toll-like receptor overexpression” (Ohio University, priority 2004, dated 2016)", "key": {"NOD mice": {"test_system": "NOD mice", "test": "Glucosuria in NOD mice, infection/Coxsackie virus-induced Type 1 diabetes", "format": "in vivo, mouse", "description": "Mice were housed in germ free facilities, termed clean, or normal facilities where viral infections can occur, termed dirty. Animals showing urine Tes-Tape positivity greater than 1+ are considered positive and to have diabetes (L. S. Wicker, et al., Diabetes, 35:855-60 (1986)). In experiments in a “dirty” animal facility, C10 was effective in retarding the development of glucosuria in the NOD mice. When this was repeated in a “clean” or germ free laboratory, no effect of C10 was noted. What was noted, however, was the onset of glucosuria in the mice was much earlier in the animals maintained in “dirty” as opposed to “clean” mouse facilities. Further, in experiments with 8 mice in each group, even in a dirty facility, the injection of CVB4 Edwards Coxsackie virus advanced the expression of glucosuria (last two rows).\nInduction of Diabetes and treatment with drugs. NOD/Lt female mice were from the Jackson Laboratory (Bar Harbor, Me.). All experiments were carried out in accordance with “Guide for Care and Use of Laboratory Animals” (NIH Publication No. 85-23, revised 1985). Mice were injected with 200 μl PBS or 5×10^5 PFU of the CVB4 Edwards Coxsackie virus strain ip (D. V. Serreze, et al., J Virol, 79:1045-52 (2005)). Mice were treated daily with i/p injections of C-10, MMI, 2.5% DMSO(C10 carrier control), or PBS (MMI carrier control). After injections, blood and urinary glucose levels were monitored weekly using Chemstrips (Boehringer Mannheim). Consecutive values of >240 mg/dl on two occasions >24 h apart were considered diagnostic of diabetes. Experiments used 8 mice/group in up to 3 experiments."}, "horses": {"test_system": "horses", "test": "Peritonitis and endotoxic shock in horses induced by intraperitoneal caecal fluid", "format": "in vivo, horse"}, "TLR3": {"test_system": "TLR3", "test": "TLR3 mRNA in NPA human thyrocytes (Northern)", "format": "cell-based", "conditions": "0.5 mM C10", "method": "In order to confirm the presence and functionality of TLR3 in human thyrocytes, we evaluated TLR3 expression in cultured NPA human thyrocytes. NPA thyrocytes are from a papillary carcinoma but are known to retain functional properties of normal thyrocytes. Transfection with dsRNA [Poly (I:C)], but not transfection by dsDNA or incubation with Poly (I:C), was able to increase TLR3 mRNA levels in Northern blots. The dsRNA, but not the dsDNA transfection, could also increase IFN-β mRNA levels, measured as before with PCR. Additionally, as was the case for FRTL-5 cells and dsRNA transfection, IFN-β increased PKR mRNA levels as well as TLR3 RNA levels.\nNPA-87 cells are a continuous line of human thyrocytes derived from papillary carcinoma cells. They retain several functional responses including TSH-increased cAMP signaling (J. Xu, et al., J Clin Endocrinol Metab, 88:4990-6 (2003)). They were kindly provided by Dr. Guy Julliard (University of California, Los Angeles, Calif.) and grown in RPMI 1640 medium supplemented with 2 g/liter sodium bicarbonate, 0.14 mM nonessential amino acids, 1.4 mM sodium pyruvate, and 10% fetal bovine serum, pH 7.2.\nRNA Isolation and Northern Analysis."}, "Stat1": {"test_system": "Stat1", "test": "LPS-induced Stat1 phosphorylation in RAW 264.7 macrophages (immunoblot)", "format": "cell-based, mouse"}, "ISRE": {"test_system": "ISRE", "test": "ISRE-Luc reporter gene in FRTL-5 thyrocytes", "format": "cell-based, rat", "method": "Cells were co-transfected with ISRE-Luc and pRLTk-Int and then treated without (none) or with Poly I:C (100 μg/ml), LPS (100 ng/ml), IL-1β (10 ng/ml) TNF-α (25 ng/ml), IFN-β (100 U/ml) or IFN-γ (1000 U/ml) in the presence of DMSO (−) or C10 for 6 hours. Data were obtained using the Dual Luciferase Assay system. The effect on the ISRE element is not duplicated by an NF-κB reporter plasmid despite the similarity of the two elements: ([…])5 (SEQ ID NO:3) vs. ([…])5 (SEQ ID NO:4), respectively. Data are representative of multiple experiments.\nPlasmids for Reporter Gene Assays. Human IRF-3 was amplified from human cDNA and cloned into pCR 2.1 by the TOPO/TA (Invitrogen, Carlsbad, Calif.) cloning method, and then sequenced. IRF-3 was then excised by EcoRI digestion and subcloned into pCMV-BD (Stratagene, La Jolla, Calif.) for use in transactivation assays. To construct IFN-β-luc the human IFN-β promoter sequence was amplified from human genomic DNA (Clontech, Palo Alto, Calif.)) using Ex Taq™ Polymerase (Takara, Madison, Wis.). The PCR fragment contained human IFN-β promoter sequence from −125 to +34 relative to the transcription start site (+1) and incorporated KpnI and XhoI restriction sites at the 5′ and 3′ ends, respectively. The primers were as follows: hIFN-β (−125) KpnI (5′-[…]-3′) (SEQ ID NO:9) and hIFN-β (+34) XhoI (5′-[…]-3′). […]"}, "[1]": {"conditions": "+ CVB4 Edwards Coxsackie virus, Dirty facility"}}, "data": [{"smiles": "Cn1c(-c2ccccc2)cnc1S", "note": "[Compound C10, 5-Phenylmethimazole]", "values": [{"measurement": "glucosuria and death in Coxsackie's virus induced NOD mouse model of diabetes", "setting": "NOD mice", "result": "effective in retarding glucosuria and death"}, {"measurement": "Glucosuria % of Total, Week 1", "setting": "NOD mice; [1]", "result": "0 % of Total"}, {"measurement": "Glucosuria % of Total, Week 4", "setting": "NOD mice; [1]", "result": "0 % of Total"}, {"measurement": "Glucosuria % of Total, Week 8", "setting": "NOD mice; [1]", "result": "20 % of Total"}, {"measurement": "Glucosuria % of Total, Week 12", "setting": "NOD mice; [1]", "result": "30 % of Total"}, {"measurement": "Glucosuria % of Total, Week 1", "setting": "NOD mice; Clean facility", "result": "0 % of Total"}, {"measurement": "Glucosuria % of Total, Week 4", "setting": "NOD mice; Clean facility", "result": "0 % of Total"}, {"measurement": "Glucosuria % of Total, Week 8", "setting": "NOD mice; Clean facility", "result": "0 % of Total"}, {"measurement": "Glucosuria % of Total, Week 12", "setting": "NOD mice; Clean facility", "result": "20 % of Total"}, {"measurement": "Glucosuria % of Total, Week 16", "setting": "NOD mice; Clean facility", "result": "40 % of Total"}, {"measurement": "Glucosuria % of Total, Week 20", "setting": "NOD mice; Clean facility", "result": "100 % of Total"}, {"measurement": "Glucosuria % of Total, Week 1", "setting": "NOD mice; Dirty facility", "result": "0 % of Total"}, {"measurement": "Glucosuria % of Total, Week 4", "setting": "NOD mice; Dirty facility", "result": "0 % of Total"}, {"measurement": "Glucosuria % of Total, Week 8", "setting": "NOD mice; Dirty facility", "result": "0 % of Total"}, {"measurement": "Glucosuria % of Total, Week 12", "setting": "NOD mice; Dirty facility", "result": "0 % of Total"}, {"measurement": "effectiveness of treatment", "setting": "horses; 10 animals so treated", "result": 100, "unit": "%"}, {"measurement": "time to disappearance of signs of collapse or depression after the C-10 bolus", "setting": "horses; C10 2 mg/kg intravenous bolus at 12 hours", "result": "≤ 15", "unit": "min"}, {"measurement": "survival rate", "setting": "horses; endotoxemia and shock due to septic peritonitis, intraperitoneal inoculation of intestinal flora", "result": 100, "unit": "%"}, {"measurement": "dsRNA transfection- or IFN-β-increased TLR3 mRNA levels", "setting": "TLR3", "result": "decreased"}, {"measurement": "LPS induced Stat1 phosphorylation in cytoplasmic and nuclear fractions", "setting": "Stat1; RAW 264.7", "result": "reduce"}, {"measurement": "Stat1 serine phosphorylation at residue 727", "setting": "Stat1; RAW 264.7, LPS 500 ng/mL 3 hours, 0.5 mM C10", "result": "reduce"}, {"measurement": "ISRE activation by poly (I:C), LPS, IL-1β, TNF-α, IFN-β and IFN-γ (ISRE-Luc)", "setting": "ISRE; FRTL-5, 6 hours", "result": "effective inhibitor"}, {"measurement": "ISRE-Luc Relative Luciferase Activity % of Control (±15%), +C10", "setting": "ISRE; FRTL-5, Ligand None, 6 hours", "result": "100 % of Control"}]}]}
